How the values were obtained:
[1] = biological target: T1, human URAT1 uptake transporter (Homo sapiens, UniProt Q96S37); test: Inhibition of URAT1 mediated uric acid uptake in MDCKII cells stably expressing human URAT1; type: cell-based
T1 construct: expressed in transfected cells
T1 sequence (Q96S37 1-553): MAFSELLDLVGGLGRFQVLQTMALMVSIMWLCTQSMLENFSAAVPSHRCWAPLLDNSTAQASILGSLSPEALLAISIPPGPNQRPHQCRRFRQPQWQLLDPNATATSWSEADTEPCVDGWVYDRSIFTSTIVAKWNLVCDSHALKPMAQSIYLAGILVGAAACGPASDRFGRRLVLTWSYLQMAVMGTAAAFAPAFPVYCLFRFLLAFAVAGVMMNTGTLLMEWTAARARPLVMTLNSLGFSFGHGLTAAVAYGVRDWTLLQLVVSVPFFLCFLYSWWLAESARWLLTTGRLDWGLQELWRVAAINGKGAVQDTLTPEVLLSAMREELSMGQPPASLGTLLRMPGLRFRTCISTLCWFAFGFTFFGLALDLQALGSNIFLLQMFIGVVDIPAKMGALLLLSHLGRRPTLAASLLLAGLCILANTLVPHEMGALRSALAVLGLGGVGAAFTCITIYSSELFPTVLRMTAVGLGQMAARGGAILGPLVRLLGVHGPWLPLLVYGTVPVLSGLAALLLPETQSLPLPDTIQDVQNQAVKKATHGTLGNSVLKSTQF
Protocol: Uptake experiments were performed using MDCKII cells stably expressing the human URAT1 uptake transporter. Cells were cultured at 37±1° C. in an atmosphere of 95:5 air:CO2 and were plated onto standard 96-well tissue culture plates at the cell number described in Table 1.
Radiolabeled probe substrate transport was determined by measuring an aliquot (35 μL) from each well for liquid scintillation counting.

[2] = tested on: serum uric acid (sUA); test: Phase 1 multiple ascending dose study, pharmacodynamics (serum uric acid) in healthy adult males; type: in vivo, human; conditions: for reduction of sUA concentration at trough / reduction of sUA concentration, maximum: fasted, Day 10
Description: An additional 6 subjects received placebo.
Steady-state sUA lowering effect was achieved after approximately 5 days.

Which “in vitro URAT1 potency compared with benzbromarone” value [1] does the source give for `[2H]c1c([2H])c([2H])c2c(C(=O)c3cc(Br)c(O)c(Br)c3)c(C(C)O)oc2c1[2H]` (racemic) [Compound 1, (3,5-dibromo-4-hydroxyphenyl)(2-(1-hydroxyethyl)benzofuran-3-yl-4,5,6,7-d4)methanone] here?
The value was “better in vitro URAT1 potency than benzbromarone”.

What about the “reduction of sUA concentration at trough” value ([2]; 25 mg oral capsules once daily) of the same compound?
The value was 41%.

What about the “reduction of sUA concentration, maximum” value ([2]; 25 mg oral capsules once daily) of the same compound?
The value was “up to 44%”.

And the “reduction of sUA concentration at trough” value ([2]; 50 mg oral capsules once daily)?
The value was 58%.

What about the “reduction of sUA concentration, maximum” value ([2]; 50 mg oral capsules once daily) of the same compound?
The value was “up to 67%”.

And the “reduction of sUA concentration at trough” value ([2]; 75 mg oral capsules once daily)?
Its value is 65%.

And the “reduction of sUA concentration, maximum” value ([2]; 75 mg oral capsules once daily)?
The value was “up to 69%”.

What about the “time to steady-state sUA lowering effect” value ([2]; once-daily 25, 50 or 75 mg) of the same compound?
Its value is “approximately 5 days”.
